These results are taken from patent US7550257B2, “Process for identifying substances which modulate the activity of hyperpolarization-activated cation channels” (Sanofi-Aventis Deutschland GmbH, priority 2000, dated 2009).

A word on the IC50: it is the concentration that gives 50% inhibition.

The target of assay [1] is T1, muHCN2 (Mus musculus, UniProt O88703).
T1 construct: expressed in transfected cells
T1 sequence (O88703 1-863): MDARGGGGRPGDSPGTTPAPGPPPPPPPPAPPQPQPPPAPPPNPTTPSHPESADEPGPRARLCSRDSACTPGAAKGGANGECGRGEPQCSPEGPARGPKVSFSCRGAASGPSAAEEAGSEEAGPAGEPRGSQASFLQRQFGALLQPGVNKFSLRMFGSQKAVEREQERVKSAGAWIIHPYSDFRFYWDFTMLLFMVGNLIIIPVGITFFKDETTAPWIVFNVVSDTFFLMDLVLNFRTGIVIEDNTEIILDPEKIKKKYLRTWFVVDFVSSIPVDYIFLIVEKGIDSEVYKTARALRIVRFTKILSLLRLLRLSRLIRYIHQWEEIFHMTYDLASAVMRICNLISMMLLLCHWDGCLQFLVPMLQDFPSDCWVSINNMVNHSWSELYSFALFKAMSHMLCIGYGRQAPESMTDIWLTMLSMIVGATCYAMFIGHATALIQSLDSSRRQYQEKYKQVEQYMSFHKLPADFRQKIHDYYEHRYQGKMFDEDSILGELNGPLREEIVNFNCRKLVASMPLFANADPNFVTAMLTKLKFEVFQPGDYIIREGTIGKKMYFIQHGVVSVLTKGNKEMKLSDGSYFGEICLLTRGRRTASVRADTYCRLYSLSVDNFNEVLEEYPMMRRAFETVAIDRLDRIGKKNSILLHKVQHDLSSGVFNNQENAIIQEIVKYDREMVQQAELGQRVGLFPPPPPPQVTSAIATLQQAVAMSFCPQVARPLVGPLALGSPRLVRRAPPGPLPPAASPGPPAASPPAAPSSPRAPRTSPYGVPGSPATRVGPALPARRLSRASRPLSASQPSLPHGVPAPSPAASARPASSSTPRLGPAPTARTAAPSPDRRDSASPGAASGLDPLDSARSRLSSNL
The assay can be described thus: FLIPR membrane potential assay (DiBac4(3)) with transfected HCN cells. The class given is cell-based, murine. Conditions: muHCN2-transfected CHO cells, relative change in fluorescence from the time 60 seconds, mean of 6 wells per concentration, read-out: IC50 of zatebradine (inhibition calculated from relative change in fluorescence). The method, then: The cells seeded on the microtiter plates are washed in an isoosmolar buffer in which NaCl has been replaced by choline chloride. However, this wash buffer also contains 5 mM KCl, since extracellular K^+ is important for HCN activation (Biel et al. 1999). This wash buffer, which serves to effect hyperpolarization of the HCN cells, also contains 5 μM DiBac4(3) for measuring changes in the membrane potential in the FLIPR. By removing the extracellular Na^+, the cells are hyperpolarized, i.e. the HCN is activated. However, the HCN is not capable of causing depolarization of the cells, since the required concentration gradient of the ions Na^+ or K^+ transported by HCN is missing. […] This is reflected in the fact that the initial fluorescence measured for HCN cells in the FLIPR at 10 μM forskolin is lower than that without forskolin, whereas there is no difference in nontransfected cells.
Since DiBac4(3) fluorescence may be sensitive to temperature variations, the measurement is, after an incubation at 37° C. for 30 minutes, carried out as quickly as possible—cooling of the dye solution may affect the measured results. […]
In the FLIPR, Na^+ is added to the cells so that the activated HCN (after a few seconds, in which there are mixing effects) causes, from about 15 seconds after the addition of Na^+, depolarization of the cells, which becomes visible by an increase in fluorescence. […]

Assay [2] deals with T1, muHCN2. The assay can be described thus: Patch-clamp (electrophysiological) examination in the same cells. The class given is cell-based, murine. Particulars: determined electrophysiologically in the same cells. The text has this:
Using the patch-clamp method, the cells with detectable mRNA expression were examined electrophysiologically, in the whole-cell configuration, for functional expression of muHCN2. This method is described in detail in Hamill et al (1981), which is incorporated herein by reference. The cells were clamped to a holding potential of −40 mV. Starting with this holding potential, the ion channels were activated by a voltage change to […] for a period of one second. The current amplitude was determined the end of this pulse. Among the transfected HEK cells, some were found having currents of about 1 nA; however, owing to interfering endogenous currents, it was not possible to construct an assay for these cells in the FLIPR.
Electrophysiologically, currents of up to 11 nA were measured. These cells were used for constructing an FLIPR assay for HCN2.
Using the transfected HCN cells, the effect of various concentrations of the substance zatebradine, which is known as an If blocker, were examined. The inhibition by zatebradine was calculated from the relative change in fluorescence from the time 60 seconds. For each concentration of the inhibitor, the mean of in each case 6 wells of the microtiter plate was determined.
A general note: The patch-clamp technique gives a direct electrical read-out from membranes.

For `COc1ccc(CCN(C)CCCN2CCc3cc(OC)c(OC)cc3CC2=O)cc1OC` [zatebradine, 3-[3-[[2-(3,4-dimethoxyphenyl)ethyl]methylamino]propyl]-1,3,4,5-tetrahydro-7,8-dimethoxy-2H-3-benzazepin-2-one], the IC50 on muHCN2 [1] is 26 µM; against muHCN2 [2], 31 µM.
